Laboratory results taken from article PMC12373846, “Hemoglobin as a pseudoperoxidase and drug target for oxidative stress-related diseases” (Signal Transduction and Targeted Therapy, 2025).
Where a name gives a salt, the structure may show the parent alone. Read-outs that look alike come from different tables or passages of the source.

Legend:
Hb = target: T1, Hb (Homo sapiens, UniProt P68871); test: ROS-Glo H2O2 assay with Hb; assay type: biochemical
T1 construct: purchased Sigma-Aldrich H7379
T1 sequence (P68871 2-147 limits assumed): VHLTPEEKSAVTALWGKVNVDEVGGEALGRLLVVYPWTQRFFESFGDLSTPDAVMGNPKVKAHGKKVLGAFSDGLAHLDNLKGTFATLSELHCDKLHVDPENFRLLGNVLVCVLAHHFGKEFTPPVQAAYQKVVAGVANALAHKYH
T1 sequence (P69905 2-142 partner limits assumed): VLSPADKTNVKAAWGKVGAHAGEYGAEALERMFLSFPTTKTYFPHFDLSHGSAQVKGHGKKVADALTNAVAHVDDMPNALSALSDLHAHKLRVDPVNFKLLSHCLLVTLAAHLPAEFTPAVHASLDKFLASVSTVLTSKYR
Procedure: Hb (Sigma‒Aldrich, H7379), H2O2 (Sigma‒Aldrich, H1009), and Amplex Red reagents (Invitrogen, A12222) were obtained for the study. A 4 μM H2O2 solution was prepared in 50 mM sodium phosphate buffer (pH 7.2). Then, 49 μl of this mixture was mixed with 1 μl of the test compound in DMSO or distilled water. The mixture was combined with an assay mixture of Amplex Red reagent (20 mM stock to 0.1 mM) and HRP (200 U/ml stock to 0.2 U/ml) and added to the wells at 50 μl/well. After a 60-min incubation at 37 °C, resorufin production was quantified via a microplate fluorescence reader (SpectraMax iD5, Molecular Devices) at ex/em = 535/580 nm. […] For the ROS-Glo assay, the H2O2 substrate solution and ROS-Glo detection solution were prepared according to the manufacturer’s instructions. 10 μM H2O2 and drugs were prepared as in the Amplex Red assay, with HRP, Hb, CAT, or GPx added as needed. The mixture was added to the wells at 100 μl/well and incubated for 60 min at 37 °C. H2O2 substrate solution was added, and the mixture was incubated at room temperature for 30 min. After the H2O2 substrate solution was added and incubated at room temperature for 30 min, the ROS-Glo detection solution was added, and the mixture was incubated for 15 min. Luminescence was measured via iD5 microplate readers. […] The U/ml was calculated on the basis of the amount of H2O2 reduced by Hb during the reaction, using μg/ml and U/mg.
To evaluate the extent of peroxidase function facilitation by HTPEB (1 μM) and KDS12025 (1 μM) in HRP (0.2 U/ml) and Hb (10 μg/ml), we used the ROS-Glo assay over 30 and 60 min. The fold change was calculated by dividing the delta values during the 30-min reaction for the vehicle over drug conditions.
To assess enzyme activity, the amount of H2O2 consumed over a specific time was quantified alongside a standard curve. For the peroxidase function of Hb, Hb was administered at doses ranging from 0.01 to 112 U/ml and preincubated with H2O2 and either DMSO, HTPEB (1 μM), or KDS12025 (1 μM) at 37 °C for 30 min. The remaining H2O2 was measured via the ROS-Glo assay and normalized against conditions without Hb. The dose‒response curve, EC50, and EC20 for H2O2 decomposition were calculated and determined by fitting the data with GraphPad Prism software. The fitting method had no special handling of outliers, and least squares regression with confidence intervals of the parameters was 95%.

HRP = target: T2, HRP (Armoracia rusticana, UniProt P00433); test: H2O2 assay with HRP (HRP-EC50); assay type: biochemical, horseradish
T2 sequence (P00433 31-353): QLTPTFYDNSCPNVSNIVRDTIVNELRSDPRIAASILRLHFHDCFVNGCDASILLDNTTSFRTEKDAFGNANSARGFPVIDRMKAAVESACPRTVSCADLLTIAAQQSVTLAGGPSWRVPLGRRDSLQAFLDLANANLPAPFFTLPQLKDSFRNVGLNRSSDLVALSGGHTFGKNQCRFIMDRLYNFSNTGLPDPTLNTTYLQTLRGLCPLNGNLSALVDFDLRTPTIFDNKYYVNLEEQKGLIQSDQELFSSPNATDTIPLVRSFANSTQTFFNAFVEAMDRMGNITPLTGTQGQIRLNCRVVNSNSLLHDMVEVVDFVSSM
Procedure: Hb (Sigma‒Aldrich, H7379), H2O2 (Sigma‒Aldrich, H1009), and Amplex Red reagents (Invitrogen, A12222) were obtained for the study. A 4 μM H2O2 solution was prepared in 50 mM sodium phosphate buffer (pH 7.2). Then, 49 μl of this mixture was mixed with 1 μl of the test compound in DMSO or distilled water. The mixture was combined with an assay mixture of Amplex Red reagent (20 mM stock to 0.1 mM) and HRP (200 U/ml stock to 0.2 U/ml) and added to the wells at 50 μl/well. After a 60-min incubation at 37 °C, resorufin production was quantified via a microplate fluorescence reader (SpectraMax iD5, Molecular Devices) at ex/em = 535/580 nm. The H2O2-decomposing activity was estimated via the following equation: (sample fluorescence-blank fluorescence)/(control […]-blank fluorescence) × 100. For the ROS-Glo assay, the H2O2 substrate solution and ROS-Glo detection solution were prepared according to the manufacturer’s instructions. 10 μM H2O2 and drugs were prepared as in the Amplex Red assay, with HRP, Hb, CAT, or GPx added as needed. The mixture was added to the wells at 100 μl/well and incubated for 60 min at 37 °C. H2O2 substrate solution was added, and the mixture was incubated at room temperature for 30 min. After the H2O2 substrate solution was added and incubated at room temperature for 30 min, the ROS-Glo detection solution was added, and the mixture was incubated for 15 min. Luminescence was measured via iD5 microplate readers. The H2O2-decomposing activity was estimated via the following equation: (sample luminescence-blank luminescence)/(control luminescence-blank luminescence) × 100. The U/ml was calculated on the basis of the amount of H2O2 reduced by Hb during the reaction, using μg/ml and U/mg.

[1] = tested on: primary cultured hippocampal astrocytes; test: oROS-G intracellular H2O2 imaging; assay type: cell-based, mouse; conditions: Fig. 3j
Procedure: Primary hippocampal astrocytes were obtained from postnatal day 0‒2 (P0‒2) C57BL/6 mice as previously described.[73] The hippocampal tissue was dissected free of meninges, minced, and dissociated into a single-cell suspension by trituration. The cells were grown in Dulbecco’s modified Eagle’s medium supplemented with D-glucose (4500 mg/L), L-glutamine, sodium pyruvate (110 mg/L), 10% heat-inactivated horse serum, 10% heat-inactivated fetal bovine serum, and 1000 U/ml penicillin‒streptomycin. The cells were maintained at 37 °C in a humidified atmosphere containing 5% CO2.
H2O2 specific, highly sensitive, and fast on-and-off kinetics, a genetically encoded oROS-G plasmid kindly provided by Dr. Andre Berndt. oROS-G was cloned under the GFAP104 promoter and delivered into primary cultured hippocampal astrocytes via the NeoN^TM transfection system (Invitrogen). The cells were treated with various concentrations of Aβ (1 to 10 μM) or 6-OHDA (Tocris, 2547; 10 to 50 μM) to induce aberrant H2O2. For subsequent experiments, 5 μM Aβ and 30 μM 6-OHDA were selected on the basis of initial dose‒response studies. KDS12025 (10 μM) and sodium pyruvate (1 mM) were applied as indicated in each experiment. For live-cell imaging, astrocytes were maintained in a humidified chamber at 37 °C with 5% […] during imaging to preserve physiological conditions. Changes in the fluorescence of oROS-G were recorded via an A1 Nikon confocal microscope equipped with a temperature- and humidity-controlled stage. Images were captured every 20 min for up to 40 h (20for the 6-OHDA experiments) via the NIS-Elements software (Nikon, Japan) for time-lapse imaging. The excitation and emission wavelengths for oROS-G fluorescence were set to 485 nm and 538 nm, respectively. Endpoint fluorescence measurements were also collected for KDS12025 dose-dependent experiments. To analyze the fluorescence intensity, individual regions of interest (ROIs) were manually selected for each astrocyte via NIS-Elements software (Nikon, Japan). The fluorescence intensity changes were normalized to the baseline values (ΔF/F0) to quantify the H2O2 dynamics. To determine the EC50 of KDS12025, endpoint fluorescence intensity data from oROS-G experiments were normalized to those of the Aβ+vehicle control group. The normalized data were analyzed via GraphPad Prism software to fit a four-parameter logistic curve, yielding the EC50 value for the H2O2-decomposing activity of KDS12025.

PAMPA BBB permeability = assay type: in vitro ADME; conditions: for BCS code: CNS +/- classification: 50 μM, 4 h; for Papp at 4 h, 50 μM: PAMPA, pH 7.4, 50 μM
Procedure: A parallel artificial membrane permeability assay (PAMPA)^70 was performed to validate the blood-brain barrier permeability of KDS12025. The procedure began by preparing a donor solution of the compound in a pH 7.4 donor buffer. This solution was added to the wells of a deep well plate, followed by the addition of a high-sensitivity UV plate filled with donor buffer to serve as the blank sample. An initial sample for the UV plate was taken to establish a baseline reading. The PAMPA sandwich was then assembled by adding the donor plate mixture to the donor plate well, followed by placing a BBB-lipid coated membrane on top and an acceptor plate filled with acceptor buffer. This setup was incubated at 25 °C for a specific duration to allow diffusion. Post-incubation, a sample from the acceptor plate was taken, and the UV absorbance was measured to determine the permeated amount of the test compound. The permeability was then calculated using the PAMPA explorer program, considering the initial donor concentration and the acceptor's concentration after incubation.

[2] = Tables S2, S3, read-out: HB-EC50
[3] = Tables S2, S3, read-out: HRP-EC50
[4] = read-out: BCS code: permeability classification

Compound | EC50 (Hb; [2]) [µM] | EC50 (HRP; [3]) [µM] | other results
Nc1ccc(O)c(C(=O)O)c1 [Mesalazine, reference compound] | 0.213 | 3.6 | –
O=C(O)c1cccc(NCCc2ccc(C(F)(F)F)cc2)c1 [7e, 3-((4-(trifluoromethyl)phenethyl)amino)benzoic acid] | > 10 | > 10 | –
FC(F)(F)c1ccc(CCNc2ccccc2)cc1 [7b, N-(4-(trifluoromethyl)phenethyl)aniline] | – | > 10 | –
NCCc1cc(O)c(O)cc1O [6-OHDA, 6-hydroxydopamine, reference compound] | – | – | oROS-G H2O2 level ([1]; 6-OHDA 10μM): 153.8±24.7; oROS-G H2O2 level ([1]; 6-OHDA 30μM): 211.9±18.2; oROS-G H2O2 level ([1]; 6-OHDA 50μM): 271.2±14.8
NCCc1ccc(C(F)(F)F)cc1 [2-(4-(Trifluoromethyl)phenyl)ethylamine, reference compound] | – | – | EC50 (Hb): > 10 µM; EC50 (HRP): > 10 µM
O=C(O)c1ccccc1O [Salicylic Acid, reference compound] | > 10 | > 10 | –
CNC(=C[N+](=O)[O-])NCCSCc1ccc(CN(C)C)o1 [Ranitidine] | – | – | BCS code: CNS +/- classification (PAMPA BBB permeability): - (< 10); Papp at 4 h, 50 μM (PAMPA BBB permeability; [4]): < 0.4 ×10⁻⁶ cm/s
CNc1ccc(NCCc2ccccc2)cc1 [8f, N^1-methyl-N^4-phenethylbenzene-1,4-diamine hydrochloride salt] | 0.0781 | 0.897 | –
COc1ccc(NCCc2ccc(C(F)(F)F)cc2)cc1 [7d, 4-methoxy-N-(4-(trifluoromethyl)phenethyl)aniline] | 23.4 | 13.3 | –
CNc1ccc(NCCc2cccc(C(F)(F)F)c2)cc1 [8g, N^1-methyl-N^4-(3-(trifluoromethyl)phenethyl)benzene-1,4-diamine hydrochloride salt] | 0.0884 | 0.378 | –
CNc1ccc(NCCc2ccc(OC)cc2)cc1 [8e, N^1-(4-methoxyphenethyl)-N^4-methylbenzene-1,4-diamine] | 0.0695 | 0.79 | –
CC(=O)[C@H]1CC[C@H]2[C@@H]3CCC4=CC(=O)CC[C@]4(C)[C@H]3CC[C@]12C [Progesterone] | – | – | BCS code: CNS +/- classification (PAMPA BBB permeability): + (> 10); Papp at 4 h, 50 μM (PAMPA BBB permeability; U.V, read-out: Pe (PAMPA BBB permeability)): 42.2 ×10⁻⁶ cm/s; Papp at 4 h, 50 μM (PAMPA BBB permeability; [4]): > 0.4 ×10⁻⁶ cm/s
Cc1ccc(O)c(C(=O)O)c1 [p-Cresotic acid, reference compound] | > 10 | > 10 | –
CNc1ccc(NCCc2cccc(OC)c2)cc1 [8d, N^1-(3-methoxyphenethyl)-N^4-methylbenzene-1,4-diamine hydrochloride salt] | 0.0855 | 0.516 | –
O=C(O)c1ccc(NCCc2ccc(C(F)(F)F)cc2)cc1 [7f, 4-((4-(trifluoromethyl)phenethyl)amino)benzoic acid] | > 10 | 22.1 | –
Oc1ccc(NCCc2ccc(C(F)(F)F)cc2)cc1 [7c, 4-((4-(trifluoromethyl)phenethyl)amino)phenol] | 5.09 | > 10 | –
CNc1ccc(NCCc2ccccc2C(F)(F)F)cc1 [8h, N^1-methyl-N^4-(2-(trifluoromethyl)phenethyl)benzene-1,4-diamine hydrochloride salt] | 0.0691 | 0.5 | –
